Key:
[1] = biological target: Serine protease 1 (Homo sapiens, UniProt P07477); assay: In vitro inhibition of trypsin
[2] = biological target: Coagulation factor X (Homo sapiens, UniProt P00742); assay: In vitro inhibition of Coagulation factor X
[3] = biological target: Prothrombin (Homo sapiens, UniProt P00734)
Description: In vitro inhibition of human alpha-thrombin

Coagulation factor X, sequence (P00742 41-179 limits assumed): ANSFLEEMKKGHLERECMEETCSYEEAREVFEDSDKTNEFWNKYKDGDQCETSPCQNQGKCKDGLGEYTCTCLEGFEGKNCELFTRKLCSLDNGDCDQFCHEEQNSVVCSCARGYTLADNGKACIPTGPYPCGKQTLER
Coagulation factor X, sequence (P00742 235-488 limits assumed): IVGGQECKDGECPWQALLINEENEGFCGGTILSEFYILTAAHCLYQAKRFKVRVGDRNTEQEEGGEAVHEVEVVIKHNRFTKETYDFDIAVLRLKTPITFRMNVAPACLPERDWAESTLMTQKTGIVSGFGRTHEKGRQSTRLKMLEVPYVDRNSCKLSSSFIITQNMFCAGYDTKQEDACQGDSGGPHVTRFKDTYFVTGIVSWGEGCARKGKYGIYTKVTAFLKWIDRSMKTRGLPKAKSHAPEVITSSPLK
Serine protease 1, sequence (P07477 whole entry): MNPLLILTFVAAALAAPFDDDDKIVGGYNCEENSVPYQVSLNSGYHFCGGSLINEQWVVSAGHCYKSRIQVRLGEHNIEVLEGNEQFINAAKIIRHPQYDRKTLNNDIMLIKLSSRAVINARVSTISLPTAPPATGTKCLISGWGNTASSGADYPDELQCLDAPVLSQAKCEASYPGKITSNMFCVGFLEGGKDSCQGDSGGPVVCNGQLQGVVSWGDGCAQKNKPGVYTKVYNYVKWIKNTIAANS

SMILES: N=C(N)c1ccc(CN(NS(=O)(=O)c2ccc3ccccc3c2)C(=O)N2CCCCCC2)cc1
- Ki [1]: 10 µM
- Ki [2]: 69 µM

SMILES: COc1ccc2cc(S(=O)(=O)NN(Cc3cccc(C(=N)NO)c3)C(=O)N3CCCCCC3)ccc2c1
- Ki [1]: 17 µM
- Ki [2]: 103 µM

SMILES: COc1ccc2cc(S(=O)(=O)NN(Cc3ccc(C(=N)N)cc3)C(=O)N3CCC(C)CC3)ccc2c1
- Ki [1]: 18 µM
- Ki [3]: 0.045 µM
- Ki [2]: > 75 µM

SMILES: N/C(=N\O)c1ccc(CN(NS(=O)(=O)c2ccc3ccccc3c2)C(=O)N2CCCCC2)cc1
- Ki [1]: > 68 µM
- Ki [2]: > 75 µM

SMILES: CC1CCN(C(=O)N(Cc2cccc(C(=N)N)c2)NS(=O)(=O)c2ccc3ccccc3c2)CC1
- Ki [1]: 0.11 µM
- Ki [2]: 5.3 µM

SMILES: CC1CCCCN1C(=O)N(Cc1ccc(C(=N)NO)cc1)NS(=O)(=O)c1ccc2ccccc2c1 (stereo unspecified)
- Ki [1]: 45 µM
- Ki [3]: 0.43 µM
- Ki [2]: > 75 µM

SMILES: N/C(=N\O)c1ccc(CN(NS(=O)(=O)c2ccc(-c3ccccc3)cc2)C(=O)N2CCCCCC2)cc1
- Ki [1]: > 400 µM
- Ki [3]: 1.6 µM

SMILES: CC1CCN(C(=O)N(Cc2cccc(C(=N)NO)c2)NS(=O)(=O)c2ccc3ccccc3c2)CC1
- Ki [1]: > 68 µM
- Ki [2]: > 75 µM

SMILES: N=C(N)c1cccc(CN(NS(=O)(=O)c2ccc3ccccc3c2)C(=O)N2CCCCCC2)c1
- Ki [1]: 0.14 µM
- Ki [2]: 3.9 µM

SMILES: N/C(=N\O)c1cccc(CN(NS(=O)(=O)c2ccc3ccccc3c2)C(=O)N2CCCCCC2)c1
- Ki [1]: 32 µM
- Ki [2]: > 75 µM

SMILES: N/C(=N\O)c1ccc(CN(NS(=O)(=O)c2ccc3ccccc3c2)C(=O)N2CCCCCC2)cc1
- Ki [1]: 13 µM
- Ki [3]: 0.21 µM
- Ki [2]: > 75 µM

SMILES: COc1ccc2cc(S(=O)(=O)NN(Cc3ccc(C(=N)NO)cc3)C(=O)N3CCC(C)CC3)ccc2c1
- Ki [1]: > 68 µM
- Ki [3]: 0.38 µM
- Ki [2]: > 75 µM

SMILES: CC1CCCCN1C(=O)N(Cc1ccc(C(=N)N)cc1)NS(=O)(=O)c1ccc2ccccc2c1 (stereo unspecified)
- Ki [1]: 26 µM
- Ki [3]: 0.085 µM
- Ki [2]: 53 µM

SMILES: CC1CCN(C(=O)N(Cc2ccc(C(=N)NO)cc2)NS(=O)(=O)c2ccc3ccccc3c2)CC1
- Ki [1]: > 68 µM
- Ki [3]: 0.77 µM
- Ki [2]: > 75 µM

SMILES: N=C(N)c1ccc(CN(NS(=O)(=O)c2ccc3ccccc3c2)C(=O)N2CCCCC2)cc1
- Ki [1]: 13 µM
- Ki [3]: 0.095 µM
- Ki [2]: 66 µM

SMILES: COc1ccc2cc(S(=O)(=O)NN(Cc3cccc(C(=N)NO)c3)C(=O)N3CCCCC3C)ccc2c1 (stereo unspecified)
- Ki [1]: 47 µM
- Ki [3]: 4.2 µM
- Ki [2]: 111 µM

SMILES: COc1ccc2cc(S(=O)(=O)NN(Cc3cccc(C(=N)N)c3)C(=O)N3CCCCCC3)ccc2c1
- Ki [1]: 0.053 µM
- Ki [2]: 3 µM

SMILES: N=C(N)c1ccc(CN(NS(=O)(=O)c2ccc(-c3ccccc3)cc2)C(=O)N2CCCCCC2)cc1
- Ki [1]: 23 µM
- Ki [3]: 0.15 µM

SMILES: CC1CCCCN1C(=O)N(Cc1cccc(C(=N)NO)c1)NS(=O)(=O)c1ccc2ccccc2c1 (stereo unspecified)
- Ki [1]: 67 µM
- Ki [2]: 5.4 µM
